One test is described as follows: cells. Format: functional, cell-based.
Test [1] concerns BJ. In words: cells. It counts as functional, cell-based, Homo sapiens. As to conditions: Homo sapiens, BJ.
For test [2], the system named is BJ. In words: BJ-TERT fibroblast viability loss – cell-based, RAS-independent, luminescence, dose response (AID 1933). It counts as functional. As to conditions: Homo sapiens.
In test [3] the target is T1, Short transient receptor potential channel 4 (Mus musculus, UniProt Q9QUQ5).
T1 sequence (Q9QUQ5 whole entry): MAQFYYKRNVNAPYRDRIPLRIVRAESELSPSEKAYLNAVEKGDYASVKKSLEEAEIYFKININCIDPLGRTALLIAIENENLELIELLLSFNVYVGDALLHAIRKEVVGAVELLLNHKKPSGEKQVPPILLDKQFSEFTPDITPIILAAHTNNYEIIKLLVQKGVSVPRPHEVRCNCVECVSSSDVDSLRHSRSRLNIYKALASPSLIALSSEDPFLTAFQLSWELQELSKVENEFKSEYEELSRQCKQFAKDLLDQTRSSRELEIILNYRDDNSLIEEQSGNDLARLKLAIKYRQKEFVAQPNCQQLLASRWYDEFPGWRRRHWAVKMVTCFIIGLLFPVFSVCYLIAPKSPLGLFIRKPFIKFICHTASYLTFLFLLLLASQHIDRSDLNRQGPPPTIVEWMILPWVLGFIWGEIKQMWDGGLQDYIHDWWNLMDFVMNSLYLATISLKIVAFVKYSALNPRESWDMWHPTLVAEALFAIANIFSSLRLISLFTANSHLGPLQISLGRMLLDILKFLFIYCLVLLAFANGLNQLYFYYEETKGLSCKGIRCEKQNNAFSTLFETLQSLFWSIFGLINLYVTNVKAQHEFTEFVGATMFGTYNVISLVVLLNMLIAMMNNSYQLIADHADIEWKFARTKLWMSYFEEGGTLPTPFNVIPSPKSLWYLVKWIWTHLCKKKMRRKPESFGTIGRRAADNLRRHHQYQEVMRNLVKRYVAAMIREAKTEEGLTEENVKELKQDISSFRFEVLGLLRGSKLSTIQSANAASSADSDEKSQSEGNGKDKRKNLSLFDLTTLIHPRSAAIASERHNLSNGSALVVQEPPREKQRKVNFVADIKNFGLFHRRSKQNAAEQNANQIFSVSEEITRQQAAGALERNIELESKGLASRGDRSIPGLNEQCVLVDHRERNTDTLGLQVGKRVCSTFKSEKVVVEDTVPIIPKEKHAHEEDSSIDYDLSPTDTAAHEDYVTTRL
In words: calcium entry via TRPC4 opening agents – cell-based, HEK293 TRPC4/mu-opioid, Fluo-4 calcium, dose response (AID 434937). It counts as functional.

The test system of test [4] is BJ. In words: BJ-TERT-LT-ST fibroblast viability loss – cell-based, RAS-independent, luminescence, dose response (AID 1935).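 Also: BJ fibroblasts immortalized with TERT plus LT and ST oncogenes.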 Format: functional. As to conditions: Homo sapiens.
Test [5] in a line: luciferase reporter signal reduction – luminescence, H4-C neuroglioblastoma cells, dose response (AID 2458).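 Also: H4 neuroglioblastoma cells stably carrying a luciferase reporter gene fusion.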 Format: functional, cell-based. (A reporter such as luciferase makes a cellular process visible.)
Test [6] deals with T2, Replicative DNA helicase DnaB (Mycobacterium tuberculosis, UniProt P9WMR3).
T2 sequence (P9WMR3 whole entry): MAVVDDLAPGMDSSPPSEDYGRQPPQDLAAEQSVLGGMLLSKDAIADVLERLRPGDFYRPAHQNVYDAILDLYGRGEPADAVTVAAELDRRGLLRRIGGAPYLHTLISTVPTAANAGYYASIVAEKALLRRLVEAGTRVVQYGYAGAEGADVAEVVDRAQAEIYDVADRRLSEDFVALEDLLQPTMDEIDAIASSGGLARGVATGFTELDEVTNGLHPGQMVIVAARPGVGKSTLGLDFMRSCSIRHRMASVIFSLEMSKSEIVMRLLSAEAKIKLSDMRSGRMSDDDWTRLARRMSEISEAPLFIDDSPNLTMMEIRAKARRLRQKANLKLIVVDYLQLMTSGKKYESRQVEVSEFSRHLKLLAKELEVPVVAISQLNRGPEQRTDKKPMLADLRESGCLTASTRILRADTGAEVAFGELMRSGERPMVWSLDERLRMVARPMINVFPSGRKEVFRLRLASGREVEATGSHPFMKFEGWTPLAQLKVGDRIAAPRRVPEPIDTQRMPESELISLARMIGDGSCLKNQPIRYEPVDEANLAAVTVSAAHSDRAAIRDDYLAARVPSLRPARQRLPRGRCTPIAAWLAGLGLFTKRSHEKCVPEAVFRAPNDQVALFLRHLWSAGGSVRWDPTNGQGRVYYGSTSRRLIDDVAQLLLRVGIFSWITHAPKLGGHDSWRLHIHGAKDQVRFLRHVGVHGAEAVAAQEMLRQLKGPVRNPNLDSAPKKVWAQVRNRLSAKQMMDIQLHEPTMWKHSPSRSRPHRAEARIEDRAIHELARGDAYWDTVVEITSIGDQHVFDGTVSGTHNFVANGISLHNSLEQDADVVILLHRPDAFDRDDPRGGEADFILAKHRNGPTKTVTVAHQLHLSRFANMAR
In words: DnaB intein splicing inhibitors, dose response, biochemical, cell-free fluorescence (AID 449749). Format: functional.

The nature of test [7]: luciferase reporter signal suppression in cells – H4 neuroglioma cells, luminescence, dose response (AID 1990). Format: functional, cell-based.
For the next test, the system named is Streptococcus. The test can be described thus: GAS UMAA2166 growth inhibition – luminescence, BacTiterGlo, counter-screen for streptokinase expression inhibitor project, dose response (AID 1915).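 Also: potency for reduction of bacterial viability or growth.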 Format: functional, organism-based. (In general: A counterscreen serves to expose hits that act by an unwanted route or on another target.)
The nature of test [8]: alpha-synuclein stem-loop luciferase translation blockers – H4 neuroglioma cells, luminescence, confirmation (AID 1988). Format: functional, cell-based.
The nature of test [9]: Counterscreen for AddAB inhibitors: absorbance-based bacterial cell-based high throughput dose response assay for inhibitors of bacterial viability. [Related pubchem assays (depositor defined):AID435030, AID449728, AID449731, AID488942, AID488955, AID488956]. It counts as functional.
Test [10] is described as follows: DRD fibroblast viability loss – cell-based, non-viral oncogenic, luminescence, dose response (AID 1934). It counts as functional. As to conditions: Homo sapiens.
For a further test, the target named is T3, Protein RecA (Mycobacterium tuberculosis, UniProt P9WHJ3).
T3 sequence (P9WHJ3 whole entry): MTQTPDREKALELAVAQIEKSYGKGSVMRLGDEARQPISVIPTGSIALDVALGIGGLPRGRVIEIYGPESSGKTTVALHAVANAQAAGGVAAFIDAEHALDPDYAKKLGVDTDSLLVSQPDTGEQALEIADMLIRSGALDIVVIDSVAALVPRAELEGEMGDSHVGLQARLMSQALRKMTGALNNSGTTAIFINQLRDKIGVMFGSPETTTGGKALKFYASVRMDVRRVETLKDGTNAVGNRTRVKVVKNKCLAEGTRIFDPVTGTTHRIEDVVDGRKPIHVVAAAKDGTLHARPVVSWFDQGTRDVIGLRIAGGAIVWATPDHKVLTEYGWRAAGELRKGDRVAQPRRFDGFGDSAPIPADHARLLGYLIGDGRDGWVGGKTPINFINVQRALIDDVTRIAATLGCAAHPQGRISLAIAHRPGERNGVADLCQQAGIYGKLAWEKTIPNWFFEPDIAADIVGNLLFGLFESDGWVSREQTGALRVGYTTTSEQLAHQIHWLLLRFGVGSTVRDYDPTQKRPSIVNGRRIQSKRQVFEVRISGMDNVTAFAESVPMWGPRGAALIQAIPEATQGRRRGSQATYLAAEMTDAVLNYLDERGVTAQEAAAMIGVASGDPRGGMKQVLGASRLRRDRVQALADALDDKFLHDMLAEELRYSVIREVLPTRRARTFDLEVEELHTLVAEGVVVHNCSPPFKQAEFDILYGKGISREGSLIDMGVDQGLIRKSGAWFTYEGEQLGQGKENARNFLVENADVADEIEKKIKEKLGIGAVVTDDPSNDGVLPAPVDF
In words: Fluorescence Cell-Free Homogeneous Dose Retest to Identify Inhibitors of RecA-Intein Splicing Activity. [Related pubchem assays (depositor defined):AID2097, AID2223, AID489010, AID492950]. Format: functional.

In another test the target is Exodeoxyribonuclease V (Escherichia coli (strain K12), UniProt P04993+P07648+P08394). The test can be described thus: RecBCD inhibition via phage-restricted bacterial growth – absorbance, V66 E. coli, mutant T4 phage, counter-screen for AddAB inhibitor project, dose response (AID 492957). It counts as functional, cell-based, Escherichia coli str. K-12 substr. MG1655.

Test [11] in a line: Luminescence Cell-Based Dose Response HTS to Identify Inhibitors of 5'UTR Stem-Loop Driven Prion Protein mRNA Translation in H4 Neuroglioblastoma Cells. [Related pubchem assays: 1827 (Project Summary), 1813 (Primary HTS)]. Format: functional.
Test [12] can be described thus: HEK-293T viability loss after treatment – luminescence, T-cell screen hits, cytotoxicity control for TCR NF-kB inhibitor project, dose response (AID 489026).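 Also: cells exposed to compound about 14 hours before the viability readout.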 Format: functional, cell-based.
A short description of test [13]: alpha-synuclein stem-loop translation blockers – luminescence, H4 neuroglioblastoma cells, dose confirmation, confirmation (AID 2454).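 Also: H4 neuroglioblastoma cells carrying an alpha-synuclein 5'UTR luciferase reporter; potency for inhibition of the luciferase signal.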 Format: functional, cell-based.
In test [14] the test system is Streptococcus sp. 'group A'. The test can be described thus: Streptococcus pyogenes SK(-)GAS viability under kanamycin – luminescence, BacTiterGlo, confirmation, counter-screen for streptokinase expression inhibitor project, dose response (AID 1900). Format: functional, organism-based.
The nature of test [15]: Trypanosoma cruzi growth suppression in host cells – NIH3T3 host cells, beta-gal luminescence, confirmation (AID 2044).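 Also: intracellular parasites grown in NIH/3T3 mouse fibroblasts as host cells; luminescent beta-galactosidase reporter signal from transgenic T. cruzi replicating inside host cells; inhibitors lower the luminescence signal.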 It counts as functional, cell-based.
For test [16], the target named is G-protein coupled receptor 55 (Homo sapiens, UniProt Q9Y2T6). The test can be described thus: blockers of GPR55 signalling, imaged – imaging, image-based, counter-screen for GPR35 antagonist project, SAR follow-up (AID 2397). Format: functional.
Test [17] can be described thus: NIH-3T3 fibroblast cytotoxicity, dose response, cytotoxicity control, cell-based, fluorescence, Alamar Blue, secondary assay (AID 2327).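 Also: NIH-3T3 mouse fibroblasts cultured with fluconazole at 8 µg/mL.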 Format: functional. For orientation: Alamar Blue is a resazurin reagent that responds to reducing activity.
The nature of test [18]: fluconazole-exposed Candida albicans growth modulators – fluorescence, retest, confirmation (AID 2467). Format: functional, cell-based.
Test [19] has as its target G-protein coupled receptor 35 (Homo sapiens, UniProt Q9HC97). The test can be described thus: inhibition of zaprinast-stimulated GPR35 beta-arrestin translocation – imaging, U2OS, beta-arrestin-GFP, zaprinast agonist, primary screen (AID 2058).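 Also: antagonist potency meaning inhibition of agonist-induced arrestin redistribution.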 Format: functional.
Test [20] in a line: NIH3T3 cell viability loss – ATP luminescence, mouse fibroblasts, counter-screen, dose response (AID 2010).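 Also: cells exposed to compound for about 90 hours before reading.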 It counts as functional, cell-based.
Test [21] has as its target T4, Mannose-6-phosphate isomerase (Homo sapiens, UniProt P34949).
T4 sequence (P34949 whole entry): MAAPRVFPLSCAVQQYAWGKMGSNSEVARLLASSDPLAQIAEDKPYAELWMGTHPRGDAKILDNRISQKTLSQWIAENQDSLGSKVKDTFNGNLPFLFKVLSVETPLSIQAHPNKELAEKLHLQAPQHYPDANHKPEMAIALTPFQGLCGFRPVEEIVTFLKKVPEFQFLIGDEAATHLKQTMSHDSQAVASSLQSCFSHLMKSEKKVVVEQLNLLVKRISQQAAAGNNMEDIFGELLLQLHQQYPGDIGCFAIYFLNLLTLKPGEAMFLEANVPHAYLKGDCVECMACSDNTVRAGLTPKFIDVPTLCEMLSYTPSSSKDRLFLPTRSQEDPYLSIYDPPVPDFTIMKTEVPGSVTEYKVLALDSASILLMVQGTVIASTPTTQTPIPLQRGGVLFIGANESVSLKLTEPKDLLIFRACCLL
In words: phosphomannose isomerase inhibition – biochemical, fluorescence intensity, confirmation (AID 1535).

Test [22] addresses T5, Voltage-gated N-type calcium channel alpha-1B subunit/Amyloid beta A4 precursor protein-binding family A member 1 (Homo sapiens, UniProt Q00975+Q02410). In words: disruptors of Mint-PDZ/N-type channel peptide interaction – biochemical, HTRF, SAR follow-up (AID 2489). It counts as functional.
Test [23] addresses T5, Voltage-gated N-type calcium channel alpha-1B subunit/Amyloid beta A4 precursor protein-binding family A member 1. The test can be described thus: disruptors of Mint-PDZ/N-type channel peptide interaction – biochemical, HTRF, set 2, SAR follow-up (AID 434980). It counts as functional.
The next test has as its target SUMO E1/E2 (Homo sapiens, UniProt P63279+Q9UBE0+Q9UBT2). The test can be described thus: SAR analysis of SUMOylation using HTRF in an in-Vitro dose response assay. [Related pubchem assays (depositor defined):AID2006, AID2011, AID2018, AID2069, AID2658]. Format: functional.

Activity calls are given as the source filed them. Rule as the data show it, for most assays here: actives have a measured EC50 and inactives only a lower limit. Some results are limits rather than exact numbers.

T5 sequence (Q00975 whole entry): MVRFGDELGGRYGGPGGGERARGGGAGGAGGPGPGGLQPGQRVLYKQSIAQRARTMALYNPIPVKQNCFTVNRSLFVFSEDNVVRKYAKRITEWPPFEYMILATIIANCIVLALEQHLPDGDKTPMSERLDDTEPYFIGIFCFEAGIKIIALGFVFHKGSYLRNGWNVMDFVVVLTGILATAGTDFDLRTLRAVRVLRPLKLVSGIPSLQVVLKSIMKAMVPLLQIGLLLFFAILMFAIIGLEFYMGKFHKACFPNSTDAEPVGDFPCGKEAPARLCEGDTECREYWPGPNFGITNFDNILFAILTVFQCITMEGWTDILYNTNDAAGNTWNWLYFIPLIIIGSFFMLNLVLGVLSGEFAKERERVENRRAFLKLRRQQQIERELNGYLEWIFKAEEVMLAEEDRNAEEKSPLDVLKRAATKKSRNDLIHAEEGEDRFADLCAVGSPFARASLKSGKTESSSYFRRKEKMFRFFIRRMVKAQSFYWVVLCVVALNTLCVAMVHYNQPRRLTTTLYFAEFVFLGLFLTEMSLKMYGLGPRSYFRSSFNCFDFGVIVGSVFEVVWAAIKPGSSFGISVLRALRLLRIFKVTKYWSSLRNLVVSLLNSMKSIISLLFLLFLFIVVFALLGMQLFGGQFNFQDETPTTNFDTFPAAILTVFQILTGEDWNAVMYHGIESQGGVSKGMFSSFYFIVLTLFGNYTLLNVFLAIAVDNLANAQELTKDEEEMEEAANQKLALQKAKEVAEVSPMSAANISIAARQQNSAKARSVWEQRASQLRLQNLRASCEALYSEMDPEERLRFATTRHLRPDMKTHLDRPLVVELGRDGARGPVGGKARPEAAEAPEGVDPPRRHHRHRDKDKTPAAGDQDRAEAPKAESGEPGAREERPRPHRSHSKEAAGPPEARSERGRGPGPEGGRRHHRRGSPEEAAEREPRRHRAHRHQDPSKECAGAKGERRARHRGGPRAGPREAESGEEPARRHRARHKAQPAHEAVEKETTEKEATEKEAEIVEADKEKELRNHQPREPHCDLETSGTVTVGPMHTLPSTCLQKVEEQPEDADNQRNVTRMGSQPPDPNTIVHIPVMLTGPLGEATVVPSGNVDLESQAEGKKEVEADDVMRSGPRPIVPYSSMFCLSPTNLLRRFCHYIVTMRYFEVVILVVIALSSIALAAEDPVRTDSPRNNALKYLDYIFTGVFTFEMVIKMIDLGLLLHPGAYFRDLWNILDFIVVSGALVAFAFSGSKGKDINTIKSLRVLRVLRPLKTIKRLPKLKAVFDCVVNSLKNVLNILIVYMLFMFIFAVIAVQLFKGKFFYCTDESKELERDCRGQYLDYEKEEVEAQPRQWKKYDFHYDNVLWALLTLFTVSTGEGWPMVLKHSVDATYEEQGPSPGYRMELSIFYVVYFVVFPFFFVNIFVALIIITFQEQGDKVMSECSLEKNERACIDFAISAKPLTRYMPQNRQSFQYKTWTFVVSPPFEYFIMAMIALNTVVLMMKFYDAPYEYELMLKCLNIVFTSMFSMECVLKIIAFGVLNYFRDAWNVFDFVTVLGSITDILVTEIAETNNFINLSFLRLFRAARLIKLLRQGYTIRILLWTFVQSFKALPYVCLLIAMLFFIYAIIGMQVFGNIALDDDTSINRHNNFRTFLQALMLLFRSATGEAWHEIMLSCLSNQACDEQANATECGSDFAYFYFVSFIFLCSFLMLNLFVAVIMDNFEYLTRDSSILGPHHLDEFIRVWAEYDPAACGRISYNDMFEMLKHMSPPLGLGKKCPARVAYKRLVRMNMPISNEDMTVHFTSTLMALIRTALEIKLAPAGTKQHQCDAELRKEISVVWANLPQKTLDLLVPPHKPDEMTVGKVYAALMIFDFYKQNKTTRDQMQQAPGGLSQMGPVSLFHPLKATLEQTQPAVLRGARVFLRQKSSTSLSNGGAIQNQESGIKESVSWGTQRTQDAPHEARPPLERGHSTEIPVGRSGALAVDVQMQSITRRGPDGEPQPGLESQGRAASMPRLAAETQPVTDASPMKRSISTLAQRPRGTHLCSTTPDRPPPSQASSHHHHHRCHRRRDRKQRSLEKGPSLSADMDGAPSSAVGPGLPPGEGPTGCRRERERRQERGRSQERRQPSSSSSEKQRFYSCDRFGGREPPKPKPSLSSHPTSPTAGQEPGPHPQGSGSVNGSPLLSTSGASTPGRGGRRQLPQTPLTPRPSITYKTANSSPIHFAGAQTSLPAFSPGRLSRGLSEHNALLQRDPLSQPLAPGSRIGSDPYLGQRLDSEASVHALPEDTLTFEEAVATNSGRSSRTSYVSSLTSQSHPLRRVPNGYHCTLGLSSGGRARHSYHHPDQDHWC
T5 sequence (Q02410 whole entry): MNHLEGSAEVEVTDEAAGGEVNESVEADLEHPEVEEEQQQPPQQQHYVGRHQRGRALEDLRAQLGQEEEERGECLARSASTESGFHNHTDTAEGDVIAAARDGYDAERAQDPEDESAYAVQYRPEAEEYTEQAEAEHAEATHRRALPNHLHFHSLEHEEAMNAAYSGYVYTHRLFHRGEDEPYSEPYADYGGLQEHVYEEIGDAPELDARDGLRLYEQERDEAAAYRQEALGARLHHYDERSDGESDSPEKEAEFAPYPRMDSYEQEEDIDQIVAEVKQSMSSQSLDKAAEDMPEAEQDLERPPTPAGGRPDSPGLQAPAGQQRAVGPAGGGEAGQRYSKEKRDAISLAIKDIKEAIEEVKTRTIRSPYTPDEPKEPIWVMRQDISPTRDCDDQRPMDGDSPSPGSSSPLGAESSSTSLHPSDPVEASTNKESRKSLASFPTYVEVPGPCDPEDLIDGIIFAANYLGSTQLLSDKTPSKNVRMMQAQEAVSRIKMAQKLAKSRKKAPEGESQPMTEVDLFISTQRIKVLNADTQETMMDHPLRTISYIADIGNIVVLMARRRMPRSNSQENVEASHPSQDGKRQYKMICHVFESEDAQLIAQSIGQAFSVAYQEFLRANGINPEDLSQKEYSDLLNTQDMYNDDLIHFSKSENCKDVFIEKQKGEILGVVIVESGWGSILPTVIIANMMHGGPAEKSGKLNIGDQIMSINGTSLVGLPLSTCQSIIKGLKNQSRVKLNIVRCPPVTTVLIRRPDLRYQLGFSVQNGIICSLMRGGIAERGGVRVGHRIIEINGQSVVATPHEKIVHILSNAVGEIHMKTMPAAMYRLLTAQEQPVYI
Sequence of G-protein coupled receptor 55 (Q9Y2T6 whole entry): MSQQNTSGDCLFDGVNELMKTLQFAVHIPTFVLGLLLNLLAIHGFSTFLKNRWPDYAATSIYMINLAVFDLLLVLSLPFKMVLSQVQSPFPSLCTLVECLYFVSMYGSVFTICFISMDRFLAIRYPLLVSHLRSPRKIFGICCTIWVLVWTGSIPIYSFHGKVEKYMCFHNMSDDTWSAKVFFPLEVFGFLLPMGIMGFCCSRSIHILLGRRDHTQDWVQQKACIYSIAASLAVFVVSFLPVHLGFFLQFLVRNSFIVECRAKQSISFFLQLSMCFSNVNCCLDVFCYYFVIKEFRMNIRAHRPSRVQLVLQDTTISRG
Sequence of G-protein coupled receptor 35 (Q9HC97 whole entry): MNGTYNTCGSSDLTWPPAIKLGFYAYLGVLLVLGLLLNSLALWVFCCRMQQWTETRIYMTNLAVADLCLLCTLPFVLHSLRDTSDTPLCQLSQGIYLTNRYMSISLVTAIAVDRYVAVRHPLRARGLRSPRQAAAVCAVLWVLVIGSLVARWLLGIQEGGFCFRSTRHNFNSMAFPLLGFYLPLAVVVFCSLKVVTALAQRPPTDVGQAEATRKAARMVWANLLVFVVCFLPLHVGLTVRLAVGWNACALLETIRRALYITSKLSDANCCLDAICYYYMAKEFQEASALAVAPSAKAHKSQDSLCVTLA
Sequence of SUMO E1/E2 (Q9UBE0 whole entry): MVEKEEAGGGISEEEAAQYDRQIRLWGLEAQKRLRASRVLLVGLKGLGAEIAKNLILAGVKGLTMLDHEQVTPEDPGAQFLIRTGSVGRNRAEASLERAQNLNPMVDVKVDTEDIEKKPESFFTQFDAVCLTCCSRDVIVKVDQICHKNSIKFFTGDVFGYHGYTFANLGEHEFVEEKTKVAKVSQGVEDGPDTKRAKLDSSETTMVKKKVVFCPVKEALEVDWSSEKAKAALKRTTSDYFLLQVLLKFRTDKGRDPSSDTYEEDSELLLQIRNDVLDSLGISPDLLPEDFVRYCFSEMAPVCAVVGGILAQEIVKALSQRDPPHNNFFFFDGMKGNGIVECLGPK
Sequence of SUMO E1/E2 (Q9UBT2 whole entry): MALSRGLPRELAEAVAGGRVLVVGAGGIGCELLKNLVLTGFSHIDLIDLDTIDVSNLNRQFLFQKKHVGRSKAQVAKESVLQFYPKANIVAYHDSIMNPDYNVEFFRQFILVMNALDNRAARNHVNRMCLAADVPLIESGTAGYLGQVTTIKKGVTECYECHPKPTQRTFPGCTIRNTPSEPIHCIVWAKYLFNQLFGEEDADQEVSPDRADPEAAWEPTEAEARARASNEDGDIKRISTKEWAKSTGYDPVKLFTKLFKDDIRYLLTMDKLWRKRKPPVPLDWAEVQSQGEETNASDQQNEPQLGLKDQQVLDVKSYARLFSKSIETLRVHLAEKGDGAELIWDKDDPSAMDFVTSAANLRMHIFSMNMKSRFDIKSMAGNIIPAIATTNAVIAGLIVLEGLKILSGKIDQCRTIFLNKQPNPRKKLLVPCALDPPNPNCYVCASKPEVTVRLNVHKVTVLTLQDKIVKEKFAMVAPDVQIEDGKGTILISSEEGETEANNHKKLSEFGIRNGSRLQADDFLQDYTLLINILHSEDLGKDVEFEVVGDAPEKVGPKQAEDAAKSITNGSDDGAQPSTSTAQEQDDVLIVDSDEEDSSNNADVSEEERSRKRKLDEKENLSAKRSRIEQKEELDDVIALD
Sequence of SUMO E1/E2 (P63279 whole entry): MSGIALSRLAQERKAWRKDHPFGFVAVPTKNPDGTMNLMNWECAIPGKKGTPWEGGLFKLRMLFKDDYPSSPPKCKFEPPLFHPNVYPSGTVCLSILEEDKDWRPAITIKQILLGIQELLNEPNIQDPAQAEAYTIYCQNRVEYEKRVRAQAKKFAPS

Usually EC50 stands for the midpoint of the concentration-response curve. Broadly, the AC50 is the midpoint of the concentration-response curve, whichever way the signal moves. What is called IC50 is the midpoint of a concentration-inhibition curve. For the molecule `Cc1ccc(C[n+]2c(-c3ccc(C)cc3)cc(-c3ccc(C)cc3)cc2-c2ccc(C)cc2)cc1.[O-][Cl+3]([O-])([O-])[O-]`, the EC50 in the test “cells” is 3.46 µM (active); in the test with BJ [1], 1.23 µM (inconclusive); in the test with BJ [2], 1.07 µM (inconclusive); in [3], 5.31 µM (active); in the test with BJ [4], 2.7 µM (inconclusive); in test [5], 1.62 µM (active). The concentration for a half-maximal effect (EC50) in [7] was < 0.1 µM (active); with Streptococcus, 7.91 µM (active); in test [8], < 0.1 µM (active); in test [10], 1.31 µM (active); on Protein RecA it was 8.2 µM (active); in [11], 4.41 µM (active). The figures for the 50% effective concentration (EC50) in test [13] and in test [14] were 0.793 µM (active) and 3.71 µM (active), respectively. The AC50 in test [6] was 3.61 µM (active). Further, the IC50 in test [9] is 18.5 µM (inactive); on Exodeoxyribonuclease V it was 20.1 µM (inactive); in [12], 25.9 µM (inactive).

Take `Cc1ccc2[nH]c(C)c(/C=C/c3cc[n+](C)cc3)c2c1`: the EC50 in [15] is 0.725 µM (active); in [17] it was > 150 µM (inactive); in [18], 1.45 µM (active); in test [20], > 30 µM (not active). The IC50 in [16] was 1.57 µM (active); in [19], 1.62 µM (active).

For `O=c1c2cc(F)ccc2sn1-c1ccccc1F`, in test [21], the IC50 was 5.3 µM (active).

As for `O=C(COC(=O)c1cc(-c2ccco2)nc2ccccc12)NCc1cccc(Cl)c1`, the IC50 in test [22] is 23.7 µM (active); in test [23], 30.7 µM (active); at SUMO E1/E2, 4.63 µM (active).
